# Experimental data reported in PMC7181660, “A novel specific PERK activator reduces toxicity and extends survival in Huntington's disease models” (Scientific Reports, 2020).
# Values joined by “and” are separate entries in the source; they are usually repeats but may differ in a detail not shown here. Equal entries are not always repeated. Where two headings read alike, the source gives them in different places.
# Key:
# Assay in all cases: biochemical
# Type in all cases: biochemical
# panel of 391 kinases [1] = target: panel of 391 kinases (Homo sapiens, UniProt P14616); conditions: IRR/INSRR, MK-28 1 µM, ATP 1 µM
# panel of 391 kinases [2] = target: panel of 391 kinases (Homo sapiens, UniProt P51813); conditions: BMX/ETK, MK-28 1 µM, ATP 1 µM
# panel of 391 kinases [3] = target: panel of 391 kinases (Homo sapiens, UniProt Q9Y463); conditions: DYRK1B, MK-28 1 µM, ATP 1 µM
# panel of 391 kinases [4] = target: panel of 391 kinases (Homo sapiens, UniProt P48730); conditions: CK1d, MK-28 1 µM, ATP 1 µM
# panel of 391 kinases [5] = target: panel of 391 kinases (Homo sapiens, UniProt P22694); conditions: PKAcb, MK-28 1 µM, ATP 1 µM
# panel of 391 kinases [6] = target: panel of 391 kinases (Homo sapiens, UniProt Q6P2M8); conditions: CAMK1b, MK-28 1 µM, ATP 1 µM
# panel of 391 kinases [7] = target: panel of 391 kinases (Homo sapiens, UniProt P08069); conditions: IGF1R, MK-28 1 µM, ATP 1 µM
# panel of 391 kinases [8] = target: panel of 391 kinases (Homo sapiens, UniProt P22612); conditions: PKAcg, MK-28 1 µM, ATP 1 µM
# panel of 391 kinases [9] = target: panel of 391 kinases (Homo sapiens, UniProt Q9UK32); conditions: RSK4, MK-28 1 µM, ATP 1 µM
# panel of 391 kinases [10] = target: panel of 391 kinases (Homo sapiens, UniProt P09619); conditions: PDGFRb, MK-28 1 µM, ATP 1 µM
# panel of 391 kinases [11] = target: panel of 391 kinases (Homo sapiens, UniProt P41279); conditions: COT1/MAP3K8, MK-28 1 µM, ATP 1 µM
# panel of 391 kinases [12] = target: panel of 391 kinases (Homo sapiens, UniProt P53355); conditions: DAPK1, MK-28 1 µM, ATP 1 µM
# panel of 391 kinases [13] = target: panel of 391 kinases (Homo sapiens, UniProt Q15118); conditions: kinase PDK1/PDHK1, compound at 1 µM, single dose in duplicates, 1 µM ATP
# panel of 391 kinases [14] = target: panel of 391 kinases (Homo sapiens, UniProt Q9UBE8); conditions: NLK, MK-28 1 µM, ATP 1 µM
# panel of 391 kinases [15] = target: panel of 391 kinases (Homo sapiens, UniProt Q13627); conditions: DYRK1/DYRK1A, MK-28 1 µM, ATP 1 µM
# panel of 391 kinases [16] = target: panel of 391 kinases (Homo sapiens, UniProt P11362); conditions: FGFR1, MK-28 1 µM, ATP 1 µM
# panel of 391 kinases [17] = target: panel of 391 kinases (Homo sapiens, UniProt P50750); conditions: MK-28 1 µM, ATP 1 µM; for remaining activity at 1 µM: read-out: % Enzyme Activity (relative to DMSO controls)
# panel of 391 kinases [18] = target: panel of 391 kinases (Homo sapiens, UniProt P22455); conditions: FGFR4, MK-28 1 µM, ATP 1 µM
# panel of 391 kinases [19] = target: panel of 391 kinases (Homo sapiens, UniProt O00444); conditions: PLK4/SAK, MK-28 1 µM, ATP 1 µM
# panel of 391 kinases [20] = target: panel of 391 kinases (Homo sapiens, UniProt P35968); conditions: KDR/VEGFR2, MK-28 1 µM, ATP 1 µM
# panel of 391 kinases [21] = conditions: for % Enzyme Activity (relative to DMSO controls): MK-28 1 µM, ATP 1 µM
# panel of 391 kinases [22] = target: panel of 391 kinases (Homo sapiens, UniProt P51956); conditions: NEK3, MK-28 1 µM, ATP 1 µM
# panel of 391 kinases [23] = target: panel of 391 kinases (Homo sapiens, UniProt Q9BUB5); conditions: MNK1, MK-28 1 µM, ATP 1 µM
# panel of 391 kinases [24] = target: panel of 391 kinases (Homo sapiens, UniProt Q96GD4); conditions: Aurora B, MK-28 1 µM, ATP 1 µM
# panel of 391 kinases [25] = target: panel of 391 kinases (Homo sapiens, UniProt Q92630); conditions: DYRK2, MK-28 1 µM, ATP 1 µM
# panel of 391 kinases [26] = target: panel of 391 kinases (Homo sapiens, UniProt Q7L7X3); conditions: TAOK1, MK-28 1 µM, ATP 1 µM
# [27] = read-out: % Enzyme Activity (relative to DMSO controls)
smiles,measurement,setting,value
CN(/N=C\c1ccc(O)c(O)c1)c1nc(-c2ccccc2)cc(-c2ccccc2)n1 [MK-28],% Enzyme Activity (relative to DMSO controls),panel of 391 kinases [1],82.69%
same,remaining activity at 1 µM,panel of 391 kinases [1]; [27],85.9%
same,% Enzyme Activity (relative to DMSO controls),panel of 391 kinases [2],100.53%
same,remaining activity at 1 µM,panel of 391 kinases [2]; [27],102%
same,% Enzyme Activity (relative to DMSO controls),panel of 391 kinases [3],88.09%
same,remaining activity at 1 µM,panel of 391 kinases [3]; [27],89.9%
same,% Enzyme Activity (relative to DMSO controls),panel of 391 kinases [4],95.42%
same,remaining activity at 1 µM,panel of 391 kinases [4]; [27],99.5%
same,% Enzyme Activity (relative to DMSO controls),panel of 391 kinases [5],95.23%
same,remaining activity at 1 µM,panel of 391 kinases [5]; [27],99.2%
same,% Enzyme Activity (relative to DMSO controls),panel of 391 kinases [6],94.89%
same,remaining activity at 1 µM,panel of 391 kinases [6]; [27],96.9%
same,% Enzyme Activity (relative to DMSO controls),panel of 391 kinases [7],98.39%
same,remaining activity at 1 µM,panel of 391 kinases [7]; [27],100%
same,% Enzyme Activity (relative to DMSO controls),panel of 391 kinases [8],92.94%
same,remaining activity at 1 µM,panel of 391 kinases [8]; [27],93.5%
same,% Enzyme Activity (relative to DMSO controls),panel of 391 kinases [9],101.39%
same,remaining activity at 1 µM,panel of 391 kinases [9]; [27],102%
same,% Enzyme Activity (relative to DMSO controls),panel of 391 kinases [10],99.16%
same,remaining activity at 1 µM,panel of 391 kinases [10]; [27],99.5%
same,% Enzyme Activity (relative to DMSO controls),panel of 391 kinases [11],95.23%
same,remaining activity at 1 µM,panel of 391 kinases [11]; [27],96%
same,% Enzyme Activity (relative to DMSO controls),panel of 391 kinases [12],129.26%
same,remaining activity at 1 µM,panel of 391 kinases [12]; [27],135%
same,% Enzyme Activity (relative to DMSO controls),panel of 391 kinases [13],100.80%
same,remaining activity at 1 µM,panel of 391 kinases [13]; [27],101%
same,% Enzyme Activity (relative to DMSO controls),panel of 391 kinases [14],99.19%
same,remaining activity at 1 µM,panel of 391 kinases [14]; [27],105%
same,% Enzyme Activity (relative to DMSO controls),panel of 391 kinases [15],102.59%
same,remaining activity at 1 µM,panel of 391 kinases [15]; [27],103%
same,% Enzyme Activity (relative to DMSO controls),panel of 391 kinases [16],103.69%
same,remaining activity at 1 µM,panel of 391 kinases [16]; [27],105%
same,% Enzyme Activity (relative to DMSO controls),panel of 391 kinases [17]; CDK9/cyclin K,95.35%
same,remaining activity at 1 µM,panel of 391 kinases [17]; CDK9/cyclin K,96.1%
same,% Enzyme Activity (relative to DMSO controls),panel of 391 kinases [17]; CDK9/cyclin T1,83.98%
same,remaining activity at 1 µM,panel of 391 kinases [17]; CDK9/cyclin T1,84.2%
same,% Enzyme Activity (relative to DMSO controls),panel of 391 kinases [17]; CDK9/cyclin T2,97.55%
same,remaining activity at 1 µM,panel of 391 kinases [17]; CDK9/cyclin T2,103%
same,% Enzyme Activity (relative to DMSO controls),panel of 391 kinases [18],100.59%
same,remaining activity at 1 µM,panel of 391 kinases [18]; [27],105%
same,% Enzyme Activity (relative to DMSO controls),panel of 391 kinases [19],92.07%
same,remaining activity at 1 µM,panel of 391 kinases [19]; [27],94.7%
same,% Enzyme Activity (relative to DMSO controls),panel of 391 kinases [20],98.38%
same,remaining activity at 1 µM,panel of 391 kinases [20]; [27],99.8%
same,number of other hits showing more than 30% increase over control,"panel of 391 kinases [21]; 1 μM, 391-kinase panel",3
same,% Enzyme Activity (relative to DMSO controls),panel of 391 kinases [21]; LYN B,100.85% and 99.31%
same,% Enzyme Activity (relative to DMSO controls),panel of 391 kinases [21]; PKCb2,90.95% and 90.23%
same,% Enzyme Activity (relative to DMSO controls),panel of 391 kinases [21]; PKG1b,113.02% and 112.43%
same,% Enzyme Activity (relative to DMSO controls),panel of 391 kinases [22],77.47%
same,remaining activity at 1 µM,panel of 391 kinases [22]; [27],79.2%
same,% Enzyme Activity (relative to DMSO controls),panel of 391 kinases [23],114.65%
same,remaining activity at 1 µM,panel of 391 kinases [23]; [27],116%
same,% Enzyme Activity (relative to DMSO controls),panel of 391 kinases [24],106.50%
same,remaining activity at 1 µM,panel of 391 kinases [24]; [27],107%
same,% Enzyme Activity (relative to DMSO controls),panel of 391 kinases [25],100.55%
same,remaining activity at 1 µM,panel of 391 kinases [25]; [27],101%
same,% Enzyme Activity (relative to DMSO controls),panel of 391 kinases [26],103.55%
same,remaining activity at 1 µM,panel of 391 kinases [26]; [27],105%
